Results published in US20250081967A1, “PESTICIDALLY ACTIVE HETEROCYCLIC DERIVATIVES WITH SULFOXIMINE CONTAINING SUBSTITUENTS” (SYNGENTA CROP PROTECTION AG, priority 2021, published 2025).

What was measured:
Format in all cases: in vivo
[1] = test system: Myzus persicae; test: Activity against Myzus persicae (green peach aphid), systemic activity, pea seedlings; details: Myzus persicae
Method: Example B5: Activity Against Myzus persicae (Green Peach Aphid) Systemic Activity
Roots of pea seedlings infested with an aphid population of mixed ages were placed directly in the aqueous test solutions prepared from 10′000 DMSO stock solutions. The samples were assessed for mortality 6 days after placing seedlings in test solutions.

[2] = test system: Myzus persicae; test: Activity against Myzus persicae (green peach aphid), feeding/contact activity, sunflower leaf discs; details: for mortality at 200 ppm: Myzus persicae, foliar, 144 h, application rate 200 ppm, feeding/contact, 6 days after infestation; for Mortality (%): Myzus persicae (feeding/contact)
Method: Example B4: Activity Against Myzus persicae (Green Peach Aphid) Feeding/Contact Activity
(§1) Sunflower leaf discs were placed on agar in a 24-well microtiter plate and sprayed with aqueous test solutions prepared from 10′000 ppm DMSO stock solutions. After drying, the leaf discs were infested with an aphid population of mixed ages. The samples were assessed for mortality 6 days after infestation.

[3] = test system: Plutella xylostella; test: Activity against Plutella xylostella (diamond back moth), artificial diet, eggs; details: 192 h, application rate 200 ppm, 8 days after infestation, read-out: effect in at least one of the two categories (mortality or growth inhibition)
Procedure, shortened: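 Artificial diet in wells treated with aqueous dilutions of 10′000 ppm DMSO stocks, dried, then infested with Plutella eggs. Mortality and growth inhibition scored against untreated samples 8 days after infestation.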

[4] = test system: Frankliniella occidentalis; test: Activity against Frankliniella occidentalis (western flower thrips), sunflower leaf discs; details: foliar, 168 h, application rate 200 ppm, mixed ages, 7 days after infestation
Method: Example B8: Activity Against Frankliniella occidentalis (Western Flower Thrips)
as §1, with “in” for “in a”, “plates” for “plate”, “[…]” for “10′000 ppm”, “drying” for “drying,”, “a Frankliniella” for “an aphid”, “7” for “6”

[5] = test system: Diabrotica balteata; test: Activity against Diabrotica balteata (corn root worm), maize sprouts; details: for percent effect (mortality or growth inhibition) at 200 ppm: 96 h, application rate 200 ppm, L2 larvae, 4 days after infestation, read-out: effect in at least one of the two categories (mortality or growth inhibition)
Method: Example B3: Activity Against Diabrotica Balteata (Corn Root Worm)
Maize sprouts placed onto an agar layer in 24-well microtiter plates were treated with aqueous test solutions prepared from 10′000 ppm DMSO stock solutions by spraying. After drying, the plates were infested with L2 larvae (6 to 10 per well). The samples were assessed for mortality and growth inhibition in comparison to untreated samples 4 days after infestation.

[6] = test system: Spodoptera littoralis; test: Activity against Spodoptera littoralis (Egyptian cotton leaf worm), cotton leaf discs; details: foliar, 72 h, application rate 200 ppm, L1 larvae, 3 days after infestation, read-out: control (mortality, anti-feeding effect or growth inhibition)
Procedure, shortened: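 Cotton leaf discs on agar sprayed with aqueous test solutions made from 10′000 ppm DMSO stocks, dried, then infested with five L1 larvae. Mortality, anti-feeding and growth inhibition scored versus untreated samples 3 days after infestation; control given when any category exceeds untreated.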

[7] = test system: Chilo suppressalis; test: Activity against Chilo suppressalis (striped rice stemborer), artificial diet; details: 144 h, application rate 200 ppm, L2 larvae, 6 days after infestation
Method: Example B11: Activity Against Chilo suppressalis (Striped Rice Stemborer)
24-well microtiter plates with artificial diet were treated with aqueous test solutions prepared from 10′000 ppm DMSO stock solutions by pipetting. After drying, the plates were infested with L2 larvae (6-8 per well). The samples were assessed for mortality, anti-feeding effect, and growth inhibition in comparison to untreated samples 6 days after infestation. Control of Chilo suppressalis by a test sample is given when at least one of the categories mortality, anti-feedant effect, and growth inhibition is higher than the untreated sample.

[8] = test system: Bemisia tabaci; test: Activity against Bemisia tabaci (cotton white fly), cotton leaf discs; details: for mortality at 200 ppm: foliar, 144 h, application rate 200 ppm, adult white flies, 6 days after incubation
Method: Example B6: Activity Against Bemisia tabaci (Cotton White Fly)
Cotton leaf discs were placed on agar in 24-well microtiter plates and sprayed with aqueous test solutions prepared from 10′000 ppm DMSO stock solutions. After drying the leaf discs were infested with adult white flies. The samples were checked for mortality 6 days after incubation.

[9] = test system: Euschistus heros; test: Activity against Euschistus heros (neotropical brown stink bug), soybean leaf; details: 120 h, application rate 200 ppm, N-2 nymphs, 5 days after infestation, read-out: effect in at least one of the two categories (mortality or growth inhibition)
Method: Example B7: Activity Against Euschistus heros (Neotropical Brown Stink Bug)
Soybean leaf on agar in 24-well microtiter plates were sprayed with aqueous test solutions prepared from 10′000 ppm DMSO stock solutions. After drying the leaf were infested with N-2 nymphs. The samples were assessed for mortality and growth inhibition in comparison to untreated samples 5 days after infestation.

[10] = test system: Plutella xylostella; test: Activity against Plutella xylostella (diamond back moth), artificial diet, L2 larvae; details: 120 h, application rate 200 ppm, 5 days after infestation, read-out: effect in at least one of the two categories (mortality or growth inhibition)
Method: Example B2: Activity Against Plutella xylostella (Diamond Back Moth)
24-well microtiter plates with artificial diet were treated with aqueous test solutions prepared from 10′000 ppm DMSO stock solutions by pipetting. After drying, the plates were infested with L2 larvae (10 to 15 per well). The samples were assessed for mortality and growth inhibition in comparison to untreated samples 5 days after infestation.

[11] = 144 h, test rate 24 ppm, systemic, 6 days after placing seedlings in test solutions

Structure (SMILES)	mortality at 24 ppm [1, 11]	mortality at 200 ppm [2]	percent effect (mortality or growth inhibition) at 200 ppm [3]	mortality at 200 ppm [4]	percent control (mortality, anti-feedant effect or growth inhibition) at 200 ppm [7]	mortality at 200 ppm [8]	other results
CCS(=N)(=O)c1cc(OC(C)(C)C#N)cnc1-c1cn2cnc(C(F)(F)F)cc2n1 (single isomer, unassigned) [Compound P11-A, 2-[[5-(ethylsulfonimidoyl)-6-[7-(trifluoromethyl)imidazo[1,2-c]pyrimidin-2-yl]-3-pyridyl]oxy]-2-methyl-propanenitrile]	≥ 80%	≥ 80%	≥ 80%	≥ 80%			mortality at 24 ppm ([1]; Myzus persicae (systemic), concentration 24 ppm): 100%; percent effect (mortality or growth inhibition) at 200 ppm [5]: ≥ 80%
CCS(=N)(=O)c1cc(OC(C)(C)C#N)cnc1-c1nc2cc(C(F)(F)F)ncc2n1C (single isomer, unassigned) [Compound P13-B, 2-[[5-(ethylsulfonimidoyl)-6-[3-methyl-6-(trifluoromethyl)imidazo[4,5-c]pyridin-2-yl]-3-pyridyl]oxy]-2-methyl-propanenitrile]					≥ 80%		percent control (mortality, anti-feedant effect or growth inhibition) at 200 ppm [6]: ≥ 80%; Mortality (%) ([2]; concentration 12.5 ppm): 100%; Mortality (%) ([5]; concentration 50 ppm): 100%
CCS(=N)(=O)c1cc(C2(C#N)CC2)cnc1-c1nc2cc(C(F)(F)F)nnc2n1C (single isomer, unassigned) [Compound P2-A, 1-[5-(ethylsulfonimidoyl)-6-[7-methyl-3-(trifluoromethyl)imidazo[4,5-c]pyridazin-6-yl]-3-pyridyl]cyclopropanecarbonitrile]	≥ 80%	≥ 80%			≥ 80%	≥ 80%	Mortality (%) ([2]; concentration 3.125 ppm): 100%
CCS(=N)(=O)c1cc(C2(C#N)CC2)ccc1-c1nc2cc(C(F)(F)F)cnc2n1C (single isomer, unassigned) [Compound P6-A, 1-[3-(ethylsulfonimidoyl)-4-[3-methyl-6-(trifluoromethyl)imidazo[4,5-b]pyridin-2-yl]phenyl]cyclopropanecarbonitrile]	≥ 80%	≥ 80%			≥ 80%	≥ 80%	mortality at 6 ppm ([1]; Myzus persicae (systemic), concentration 6 ppm): 80%; percent effect (mortality or growth inhibition) at 200 ppm [5]: ≥ 80%; mortality at 50 ppm ([5]; concentration 50 ppm): 80%
CCn1c(C(F)(F)F)cc2nc(-c3ncc(C4(C#N)CC4)cc3S(=N)(=O)CC)n(C)c2c1=O (single isomer, unassigned) [Compound P14-B, 1-[6-[5-ethyl-3-methyl-4-oxo-6-(trifluoromethyl)imidazo[4,5-c]pyridin-2-yl]-5-(ethylsulfonimidoyl)-3-pyridyl]cyclopropanecarbonitrile]					≥ 80%		Mortality (%) ([5]; concentration 50 ppm): 50%
CCS(=N)(=O)c1cc(C2(C#N)CC2)cnc1-c1nc2cc(C(F)(F)F)ncc2n1C (single isomer, unassigned) [Compound P10-B, 1-[5-(ethylsulfonimidoyl)-6-[3-methyl-6-(trifluoromethyl)imidazo[4,5-c]pyridin-2-yl]-3-pyridyl]cyclopropanecarbonitrile]					≥ 80%		Mortality (%) ([8]; concentration 12.5 ppm): 100%; Mortality (%) ([2]; concentration 0.781 ppm): 80%
CCS(=N)(=O)c1cc(OC(C)(C)C#N)cnc1-c1nc2cc(C(F)(F)F)n(C3CC3)c(=O)c2n1C (racemic) [Compound P1, 2-[[6-[5-cyclopropyl-3-methyl-4-oxo-6-(trifluoromethyl)imidazo[4,5-c]pyridin-2-yl]-5-(ethylsulfonimidoyl)-3-pyridyl]oxy]-2-methyl-propanenitrile]	≥ 80%	≥ 80%		≥ 80%		≥ 80%	percent control (mortality, anti-feedant effect or growth inhibition) at 200 ppm [6]: ≥ 80%; percent effect (mortality or growth inhibition) at 200 ppm [9]: ≥ 80%; percent effect (mortality or growth inhibition) at 200 ppm [10]: ≥ 80%; percent effect (mortality or growth inhibition) at 200 ppm [5]: ≥ 80%
CCS(=N)(=O)c1cc(C2(C#N)CC2)cnc1-c1nc2cc(C(F)(F)F)ncc2n1C (racemic) [Compound P10, 1-[5-(ethylsulfonimidoyl)-6-[3-methyl-6-(trifluoromethyl)imidazo[4,5-c]pyridin-2-yl]-3-pyridyl]cyclopropanecarbonitrile]	≥ 80%	≥ 80%	≥ 80%		≥ 80%	≥ 80%	
CCS(=N)(=O)c1cc(OC(C)(C)C#N)cnc1-c1cn2cnc(SC(F)(F)F)cc2n1 (single isomer, unassigned) [Compound P7-B, 2-[[5-(ethylsulfonimidoyl)-6-[7-(trifluoromethylsulfanyl)imidazo[1,2-c]pyrimidin-2-yl]-3-pyridyl]oxy]-2-methyl-propanenitrile]			≥ 80%	≥ 80%			Mortality (%) ([8]; concentration 50 ppm): 80%
CCS(=N)(=O)c1cc(C2(C#N)CC2)cnc1-c1nc2cc(C(F)(F)F)cnc2n1C (single isomer, unassigned) [Compound P16-B, 1-[5-(ethylsulfonimidoyl)-6-[3-methyl-6-(trifluoromethyl)imidazo[4,5-b]pyridin-2-yl]-3-pyridyl]cyclopropanecarbonitrile]					≥ 80%		Mortality (%) ([8]; concentration 12.5 ppm): 80%; percent control (mortality, anti-feedant effect or growth inhibition) at 200 ppm [6]: ≥ 80%; Mortality (%) ([2]; concentration 3.125 ppm): 100%
CCn1c(C(F)(F)F)cc2nc(-c3ncc(OC(C)(C)C#N)cc3S(=N)(=O)CC)n(C)c2c1=O (single isomer, unassigned) [Compound P19-B, 2-[[6-[5-ethyl-3-methyl-4-oxo-6-(trifluoromethyl)imidazo[4,5-c]pyridin-2-yl]-5-(ethylsulfonimidoyl)-3-pyridyl]oxy]-2-methyl-propanenitrile]				≥ 80%			
CCS(=N)(=O)c1cc(C2(C#N)CC2)cnc1-c1nc2cc(C(F)(F)F)n(OC)c(=O)c2n1C (single isomer, unassigned) [Compound P8-B, 1-[5-(ethylsulfonimidoyl)-6-[5-methoxy-3-methyl-4-oxo-6-(trifluoromethyl)imidazo[4,5-c]pyridin-2-yl]-3-pyridyl]cyclopropanecarbonitrile]			≥ 80%		≥ 80%		
CCS(=N)(=O)c1cc(OC(C)(C)C#N)cnc1-c1nc2cc(C(F)(F)F)n(C3CC3)c(=O)c2n1C (single isomer, unassigned) [Compound P1-B, 2-[[6-[5-cyclopropyl-3-methyl-4-oxo-6-(trifluoromethyl)imidazo[4,5-c]pyridin-2-yl]-5-(ethylsulfonimidoyl)-3-pyridyl]oxy]-2-methyl-propanenitrile]			≥ 80%	≥ 80%			
